Here are results for 17 molecules from patent US12344603B2 (Genentech, Inc., priority 2020, dated 2025).

Counter-ions that a name gives are not always drawn.

Sequence of IRE1α (O75460 547-977 D688N): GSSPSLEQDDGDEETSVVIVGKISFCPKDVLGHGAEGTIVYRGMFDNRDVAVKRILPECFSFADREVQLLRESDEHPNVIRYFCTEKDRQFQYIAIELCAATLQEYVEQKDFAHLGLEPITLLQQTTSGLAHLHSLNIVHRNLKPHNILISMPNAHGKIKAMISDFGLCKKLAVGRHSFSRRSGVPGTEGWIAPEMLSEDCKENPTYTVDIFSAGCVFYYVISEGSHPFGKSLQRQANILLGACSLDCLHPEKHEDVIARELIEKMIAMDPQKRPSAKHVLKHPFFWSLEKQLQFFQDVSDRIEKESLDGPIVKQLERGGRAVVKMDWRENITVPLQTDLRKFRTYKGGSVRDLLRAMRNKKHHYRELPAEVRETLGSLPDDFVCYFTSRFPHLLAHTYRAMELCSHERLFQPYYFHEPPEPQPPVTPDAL

The experiment has as its target IRE1α (Homo sapiens (Human), UniProt O75460, D688N). The experiment is described as follows: IRE1α TR-FRET competition binding assay (IRE1α HTRF). Particulars: TR-FRET competition binding to kinase domain of IRE1α. Summed up: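 Competition of compounds against an Alexa fluor 647 ATP-site probe (2 nM final) for the His-tagged kinase domain (0.25 nM final), detected via 2 nM Eu anti-His antibody by TR-FRET, 665 and 615 nm emission. Protein–antibody premix 1 h, 4° C; reaction 1 h, room temperature, pH 7.5 HEPES buffer.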
In general terms: In TR-FRET formats the signal depends on donor and acceptor labels being close together.
For orientation: IC50 means the midpoint of a concentration-inhibition curve. Low readings indicate inhibition by little substance, high ones a need for much substance. With `CC(C)n1c(=O)c(-c2cc(F)c(NS(=O)(=O)CCC(C)(F)F)c(F)c2F)cc2cnc(N[C@H]3CC[C@H](N(C)C)CC3)nc21` [Compound 33, N-(4-(2-(((1r,4r)-4-(Dimethylamino)cyclohexyl)amino)-8-isopropyl-7-oxo-7,8-dihydropyrido[2,3-d]pyrimidin-6-yl)-2,3,6-trifluorophenyl)-3,3-difluorobutane-1-sulfonamide], the IC50 is 0.98 nM. Molecule `CCC(F)(F)CS(=O)(=O)Nc1c(F)cc(-c2cc3cnc(N[C@H]4CC[C@H](N(C)C)CC4)nc3n(C(C)C)c2=O)c(F)c1F` [Compound 36, N-(4-(2-(((1r,4r)-4-(Dimethylamino)cyclohexyl)amino)-8-isopropyl-7-oxo-7,8-dihydropyrido[2,3-d]pyrimidin-6-yl)-2,3,6-trifluorophenyl)-2,2-difluorobutane-1-sulfonamide] had a half-inhibitory concentration (IC50) of 0.18 nM. Under `CC(C)n1c(=O)c(-c2cc(F)c(NC(=O)C3CC3)c(F)c2F)cc2cnc(N[C@H]3CC[C@H](N(C)C)CC3)nc21` [Compound 37, N-(4-(2-(((1r,4r)-4-(Dimethylamino)cyclohexyl)amino)-8-isopropyl-7-oxo-7,8-dihydropyrido[2,3-d]pyrimidin-6-yl)-2,3,6-trifluorophenyl)cyclopropanecarboxamide] stands 1.4 nM. The same measure for `CC(C)n1c(=O)c(-c2cc(F)c(NS(=O)(=O)Cc3ccn(C)n3)c(F)c2F)cc2cnc(N[C@@H]3CNC[C@@H](F)C3)nc21` [Compound 38, 1-(1-Methyl-1H-pyrazol-3-yl)-N-(2,3,6-trifluoro-4-(2-(((3S,5S)-5-fluoropiperidin-3-yl)amino)-8-isopropyl-7-oxo-7,8-dihydropyrido[2,3-d]pyrimidin-6-yl)phenyl)methanesulfonamide]: 0.39 nM; for `CCn1c(=O)c(-c2cc(F)c(NS(=O)(=O)Cc3cccc(C(F)(F)F)c3)c(F)c2F)cc2cnc(N[C@@H]3CNC[C@@H](F)C3)nc21` [Compound 39, N-(4-(8-Ethyl-2-(((3S,5S)-5-fluoropiperidin-3-yl)amino)-7-oxo-7,8-dihydropyrido[2,3-d]pyrimidin-6-yl)-2,3,6-trifluorophenyl)-1-(3-(trifluoromethyl)phenyl)methanesulfonamide]: 0.4 nM; for `O=c1c(-c2ccc(NS(=O)(=O)Cc3ccccc3)c(F)c2F)cc2cnc(N[C@@H]3CNC[C@@H](F)C3)nc2n1CC(F)(F)F` [Compound 40, N-(2,3-Difluoro-4-(2-(((3S,5S)-5-fluoropiperidin-3-yl)amino)-7-oxo-8-(2,2,2-trifluoroethyl)-7,8-dihydropyrido[2,3-d]pyrimidin-6-yl)phenyl)-1-phenylmethanesulfonamide]: 1.7 nM.

The molecule `CCC1CCN(c2ccc(-c3cc4cnc(N[C@@H]5CNC[C@@H](F)C5)nc4n(CC)c3=O)c(F)c2F)C1=O` (stereo partly drawn) [Compound 41, 8-Ethyl-6-(4-(3-ethyl-2-oxopyrrolidin-1-yl)-2,3-difluorophenyl)-2-(((3S,5S)-5-fluoropiperidin-3-yl)amino)pyrido[2,3-d]pyrimidin-7(8H)-one] displayed an IC50 of 87 nM.

The molecule `CC(n1c(=O)c(-c2ccc(NS(=O)(=O)Cc3ccccc3)c(F)c2F)cc2cnc(N[C@@H]3CNC[C@@H](F)C3)nc21)C(F)(F)F` (stereo partly drawn) [Compound 42, N-(2,3-difluoro-4-(2-(((3S,5S)-5-fluoropiperidin-3-yl)amino)-7-oxo-8-(1,1,1-trifluoropropan-2-yl)-7,8-dihydropyrido[2,3-d]pyrimidin-6-yl)phenyl)-1-phenylmethanesulfonamide trifluoroacetate salt] showed an IC50 of 3.6 nM. With `CC(C)n1c(=O)c(-c2ccc(NS(=O)(=O)Cc3ccccc3)c(F)c2F)nc2cnc(N[C@@H]3CNC[C@@H](F)C3)nc21` [Compound 43, N-(2,3-Difluoro-4-(2-(((3S,5S)-5-fluoropiperidin-3-yl)amino)-8-isopropyl-7-oxo-7,8-dihydropteridin-6-yl)phenyl)-1-phenylmethanesulfonamide], the IC50 was 0.71 nM.

As to `CC(C)n1c(=O)c(-c2ccc(NS(=O)(=O)Cc3ccccc3)c(F)c2)nc2cnc(N[C@@H]3CNC[C@@H](F)C3)nc21` [Compound 44, N-(2-Fluoro-4-(2-(((3S,5S)-5-fluoropiperidin-3-yl)amino)-8-isopropyl-7-oxo-7,8-dihydropteridin-6-yl)phenyl)-1-phenylmethanesulfonamide], the IC50 was determined as 0.28 nM.

In turn, `CC(C)n1c(=O)c(-c2cc(F)c(NS(=O)(=O)Cc3ccccc3)c(F)c2)nc2cnc(N[C@@H]3CNC[C@@H](F)C3)nc21` [Compound 45, N-(2,6-Difluoro-4-(2-(((3S,5S)-5-fluoropiperidin-3-yl)amino)-8-isopropyl-7-oxo-7,8-dihydropteridin-6-yl)phenyl)-1-phenylmethanesulfonamide] had an IC50 of 0.22 nM. The IC50 values of the last two molecules are within 1.5-fold of each other. Under `CC(C)n1c(=O)c(-c2cc(F)c(NS(=O)(=O)CCC(F)(F)F)c(F)c2)nc2cnc(N[C@@H]3CNC[C@@H](F)C3)nc21` [Compound 46, N-(2,6-Difluoro-4-(2-(((3S,5S)-5-fluoropiperidin-3-yl)amino)-8-isopropyl-7-oxo-7,8-dihydropteridin-6-yl)phenyl)-3,3,3-trifluoropropane-1-sulfonamide] stands 0.47 nM. Under `CCn1c(=O)c(-c2cc(F)c(NS(=O)(=O)Cc3ccc(C#N)cc3)c(F)c2F)cc2cnc(N[C@@H]3CNC[C@@H](F)C3)nc21` [Compound 47, 1-(4-cyanophenyl)-N-(4-(8-ethyl-2-(((3S,5S)-5-fluoropiperidin-3-yl)amino)-7-oxo-7,8-dihydropyrido[2,3-d]pyrimidin-6-yl)-2,3,6-trifluorophenyl)methanesulfonamide] stands 0.37 nM. Under `CCn1c(=O)c(-c2cc(F)c(NS(=O)(=O)CC3(F)CC3)c(F)c2F)cc2cnc(N[C@@H]3CNC[C@@H](F)C3)nc21` [Compound 48, N-(4-(8-ethyl-2-(((3S,5S)-5-fluoropiperidin-3-yl)amino)-7-oxo-7,8-dihydropyrido[2,3-d]pyrimidin-6-yl)-2,3,6-trifluorophenyl)-1-(1-fluorocyclopropyl)methanesulfonamide] stands 28 nM. Take `CCn1c(=O)c(-c2cc(F)c(NS(=O)(=O)Cc3ccccn3)c(F)c2F)cc2cnc(N[C@@H]3CNC[C@@H](F)C3)nc21` [Compound 49, N-(4-(8-ethyl-2-(((3S,5S)-5-fluoropiperidin-3-yl)amino)-7-oxo-7,8-dihydropyrido[2,3-d]pyrimidin-6-yl)-2,3,6-trifluorophenyl)-1-(pyridin-2-yl)methanesulfonamide]: the concentration for half-maximal inhibition (IC50) turned out to be 5 nM.

Molecule `CCn1c(=O)c(-c2cc(F)c(NS(=O)(=O)Cc3ccc(C(F)(F)F)cc3)c(F)c2F)cc2cnc(N[C@@H]3CNC[C@@H](F)C3)nc21` [Compound 50, N-(4-(8-ethyl-2-(((3S,5S)-5-fluoropiperidin-3-yl)amino)-7-oxo-7,8-dihydropyrido[2,3-d]pyrimidin-6-yl)-2,3,6-trifluorophenyl)-1-(4-(trifluoromethyl)phenyl)methanesulfonamide hydrochloride] gave an IC50 of 0.22 nM. Compared with the last molecule, the IC50 is about 23-fold lower. Under `CCn1c(=O)c(-c2cc(F)c(NS(=O)(=O)Cc3c(F)cccc3F)c(F)c2F)cc2cnc(N[C@@H]3CNC[C@@H](F)C3)nc21` [Compound 51, 1-(2,6-difluorophenyl)-N-(4-(8-ethyl-2-(((3S,5S)-5-fluoropiperidin-3-yl)amino)-7-oxo-7,8-dihydropyrido[2,3-d]pyrimidin-6-yl)-2,3,6-trifluorophenyl)methanesulfonamide] stands 0.7 nM.
